Consider 9 molecules from PMC6290340, “Discovery of Antiamebic Compounds That Inhibit Cysteine Synthase From the Enteric Parasitic Protist Entamoeba histolytica by Screening of Microbial Secondary Metabolites” (Frontiers in Cellular and Infection Microbiology, 2018).

Where two headings read alike, the source gives them in different places. Bounds are passed on as bounds.

The test system of data set [1] is E. histolytica trophozoites. Put plainly: In vitro antiamebic activity (WST-1), L-cysteine-deprived or L-cysteine-supplemented BI-S-33 medium. In kind it is cell-based, Entamoeba histolytica. Conditions: for Anti-amebic activity Selectivity Cys(+)/Cys(–): ED50 Cys(+)/ED50 Cys(–), cysteine dependence index; for Anti-amebic activity ED50 Cys (+): L-cysteine (9 mM) supplemented BI-S-33 medium; for Anti-amebic activity ED50 Cys (+) / Anti-amebic activity ED50 Cys (–): 48 hrs; for Anti-amebic activity ED50 Cys (–): L-cysteine-deprived BI-S-33 medium; for IC50: Entamoeba histolytica. The protocol: Trophozoites were harvested in a logarithmic growth phase 3 or 4 days after inoculation of 1/30–1/12 volume of the seed culture. After the cultures were chilled on ice for 5 min, trophozoites were collected by centrifugation at 500 × g for 10 min at 4°C. The trophozoites were resuspended in BI-S-33 medium containing 1% (v/v) penicillin/streptomycin (Life Technologies, Grand Islands, NY, U.S.A.), with a final concentration of 5 × 10^4 cells/ml. […] The plates were incubated under anaerobic conditions with Anaeropak for 48 hrs. After incubation, the medium was removed and 90 μl of pre-warmed Opti-MEM I (Life Technologies) and 10 μl of WST-1 solution (Dojindo, Kumamoto, Japan) were added to each well. Optical absorbance at 450 nm was measured on a photospectrometer (SH-9000Lab, Corona Electric, Ibaraki, Japan). Metronidazole (Sigma-Aldrich, MO, USA) was used as positive control. Antiamebic assays were done in triplicate. […] The cysteine dependence of the antiamebic activities was calculated as ED 50Cys(+) /ED 50Cys(-) and expressed as “cysteine dependence index.”
Approximately 2 μl of the compound solution (1 mg/ml, in DMSO) of the Kitasato Natural Products Library or 10 μl of EtOH extracts of microbial culture broth extracts was added to each well of E. histolytica trophozoite-seeded 96-well microtiter plates (final concentrations, 10 μg/ml). Compounds showing more than 80% growth inhibition and having no cytotoxicity against MRC-5 cells were selected for further evaluation.
(Tetrazolium assays rely on reduction of a dye to a coloured formazan, in cell work by metabolically active cells.)

In data set [2] the target is E. histolytica CS1 (Entamoeba histolytica, UniProt O15570). Kind of data set: CS inhibitory activity, recombinant CS1. In kind it is biochemical. The protocol: Pencolide (5.5 mg) was dissolved in 1 ml of 0.25 M L-cysteine aqueous solution (L-cysteine HCl salt in H2O) and left at room temperature for overnight. The reaction mixture was purified by Seppak ODS (Waters co., Massachusetts, USA) and the cysteine adducts were eluted with 30%MeCN-70%H2O containing 0.1%TFA. The obtained fraction was further purified by preparative HPLC (column, Senshupak Pegasil ODS SP100, 20 φ × 250 mm, Senshu Scientific Co. Ltd.; solvent, 0.1%TFA-MeCN-H2O gradient system, 10–50% MeCN per 0–30 min; flow rate, 7.0 ml/min; detection, UV at 210 nm). […] The methanol solution of the obtained adducts was used for measurement of the CS1 inhibitory activity.
E. histolytica CS1, sequence (O15570 entry or part of it): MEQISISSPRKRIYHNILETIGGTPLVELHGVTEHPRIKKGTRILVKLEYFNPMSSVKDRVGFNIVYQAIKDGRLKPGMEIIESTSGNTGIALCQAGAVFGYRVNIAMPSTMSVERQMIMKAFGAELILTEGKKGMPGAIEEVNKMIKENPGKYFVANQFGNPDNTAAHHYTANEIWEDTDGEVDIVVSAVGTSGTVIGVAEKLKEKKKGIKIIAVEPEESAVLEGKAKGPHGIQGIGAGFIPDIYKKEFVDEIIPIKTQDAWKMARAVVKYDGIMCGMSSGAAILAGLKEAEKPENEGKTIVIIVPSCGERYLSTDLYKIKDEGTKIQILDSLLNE

Data set [3] addresses E. histolytica CS3 (Entamoeba histolytica, UniProt Q401L7). Kind of data set: CS inhibitory activity, recombinant CS3. Type of data set: biochemical.
The test system of data set [4] is EhCSs. Kind of data set: EhCS inhibition, isotype not separated (both CSs / EhCS). In kind it is biochemical, Entamoeba histolytica. Conditions: cytochalasans and cerulenin at 100 μg/ml. The source says:
Expression and purification of recombinant E. histolytica CS1 and CS3, and measurement of inhibitory activity against both enzymes were described previously (Mori et al., [2015]).

The format of data set [5] is physicochemical. Conditions: 9 mM L-cysteine, 37°C, 2 days. The protocol:
After mixing well with plate mixer for 3 min, the plate was incubated at 37°C axenically with Anaeropak (Mitsubishi Chemical, Tokyo, Japan) for 2 days. The reaction mixtures were evaluated by HPLC analysis (column, Senshupak Pegasil ODS SP100, 4.6 φ × 250 mm, Senshu Scientific Co. Ltd., Japan; solvent, MeCN-H2O gradient system, 10–90% MeCN per 0–30 min; flow rate, 1.0 ml/min; detection, UV at 210 nm) and LC-ESI-MS analysis (column, Capcellcore C18, 2.1 φ × 50 mm, Osaka soda, Japan; solvent, MeCN-H2O-0.1% HCO2H gradient system, 5–100% MeCN per 0–8 min, 100%MeCN per 8–10 min; flow rate, 0.4 ml/min; ESI-MS data was obtained by JEOL JMS-T100LP, JEOL, Japan).

A short description of data set [6]: Cytotoxicity against MRC-5 cells (WST-8). Type of data set: cell-based, Human. Conditions: human, MRC-5 fibroblast cells; 2 days. As to the method:
(§1) Human fibroblast cell line, MRC-5, was used for cytotoxicity evaluation. MRC-5 cells were plated on 96-well flat bottom plates at a density of 1.5 × 10^4 cells/well in 100 μl of MEM medium each well (Life Technologies) containing 10% fetal bovine serum (Hana-nesco Bio, Tokyo, Japan) and 1% penicillin-streptomycin (Life Technologies) and incubated at 37°C with 5% CO2 for 2 days. Test compounds in 5 μl of 50% DMSO and 50% H2O and 100 μl of MEM medium were mixed and added to each well. After cultivation at 37°C with 5% CO2 for 2 days, cell density and morphological changes were observed under a microscope. After observation, 10 μl of WST-8 solution (Dojindo) was added to the cells and the plate was incubated at 37°C with 5% CO2 for 2 h. Then, absorbance at 450 nm was measured as above. Cytotoxicity against MRC-5 cells was measured in triplicate. ED50 values were calculated as previously described (Arita-Morioka et al., [2015]).

The subject of data set [7] is MRC-5 cells. Put plainly: Cytotoxicity against MRC-5 cells (WST-8). In kind it is cell-based, Human. The conditions noted are these: MRC-5 relative to E. histolytica in Cys (–). The protocol: as §1
Data set [8] concerns E. histolytica trophozoites. Kind of data set: In vitro antiamebic activity (WST-1), L-cysteine-deprived or L-cysteine-supplemented BI-S-33 medium. Type of data set: cell-based, Entamoeba histolytica. Conditions: Cys (–) medium, 2.5 mM pencolide.
Data set [9] relates to E. histolytica trophozoites. Details: method as in Mori et al., 2015. Conditions: ref Mori et al., 2015, cited from earlier work.
For data set [10], the system named is MRC-5 cells. Details: method as in Mori et al., 2015. Conditions: strong cytotoxicity, times higher, ref Mori et al., 2015; cited from earlier work.
Data set [11] concerns EhCSs. Further details: method as in Mori et al., 2015. Conditions: previous enzymatic screening, ref Mori et al., 2015; read-out: IC50 value against CSs; cited from earlier work.
[12] abbreviates: read-out: CS inhibitory activity IC50 CS1 (converted).
Setting [13] is: read-out: CS inhibitory activity IC50 CS3 (converted).

E. histolytica CS3, sequence (Q401L7 entry or part of it): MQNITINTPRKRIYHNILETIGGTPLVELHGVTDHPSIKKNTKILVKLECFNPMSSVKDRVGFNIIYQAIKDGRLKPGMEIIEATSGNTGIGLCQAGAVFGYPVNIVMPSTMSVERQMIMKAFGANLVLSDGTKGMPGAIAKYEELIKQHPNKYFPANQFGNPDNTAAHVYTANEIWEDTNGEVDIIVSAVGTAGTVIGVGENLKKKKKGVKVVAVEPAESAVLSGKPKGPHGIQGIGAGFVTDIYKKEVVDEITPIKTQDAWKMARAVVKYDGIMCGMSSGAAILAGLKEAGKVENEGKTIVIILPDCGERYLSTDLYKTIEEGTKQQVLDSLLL

For orientation: IC50 means the concentration that inhibits the measured activity by half. For `CC1=CC2C=C(C)C(C)C3C(CC(C)C)NC(=O)C23C(=O)C=CC(=O)C(O)CC1` (stereo not shown) [Aspochalasin B], in [1], the “Anti-amebic activity Selectivity Cys(+)/Cys(–)” value is 3, the “Anti-amebic activity ED50 Cys (+)” value came out at 27 µg/mL and the “Anti-amebic activity ED50 Cys (–)” value is 9.6 µg/mL. In data set [2], the IC50 was more than 250 µM. Further, the IC50 in data set [3] is more than 250 µM.
As for `C/C=C/C/C=C/CCC(=O)[C@H]1O[C@H]1C(N)=O` [Cerulenin, reference compound], the “Anti-amebic activity ED50 Cys (+)” value in data set [1] worked out at 8.2 µg/mL. For the same molecule, the “Anti-amebic activity ED50 Cys (–)” value in data set [1] came to 1.1 µg/mL. Moreover, the IC50 in data set [2] and in data set [3] was more than 448 µM each time. In [4], the “Inhibitory activity toward both CS1 and CS3 (in words)” value is on record as “neither three cytochalasans nor cerulenin showed the inhibitory activity”. The “Stability in cysteine-supplemented water (HPLC)” value (“Stability” for short) in data set [5] is listed as “relatively stable”.
With `C/C1=C\[C@@H](C)C/C=C/[C@H]2[C@@H]3O[C@]3(C)[C@@H](C)[C@H]3[C@H](Cc4c[nH]c5ccccc45)NC(=O)[C@]32C(=O)/C=C/C(=O)[C@@H]1O` [Chaetoglobosin A], in data set [1], the “Anti-amebic activity Selectivity Cys(+)/Cys(–)” value was more than 50, the “Anti-amebic activity ED50 Cys (+)” value is more than 50 µg/mL and the “Anti-amebic activity ED50 Cys (–)” value was 1.0 µg/mL. Further, in data set [2], the IC50 is more than 189 µM. Also, the IC50 in [3] is more than 189 µM. Also, the “Stability” value in data set [5] was “totally lost”.
In the case of `CCC[C@H]1O[C@H](CC(=O)O)CC2=C1C(=O)c1c(O)cccc1C2=O` [Deoxyfrenolicin], in data set [1], the “Anti-amebic activity Selectivity Cys(+)/Cys(–)” value is listed as 2, the “Anti-amebic activity ED50 Cys (+)” value turned out to be 3.9 µg/mL and the “Anti-amebic activity ED50 Cys (–)” value worked out at 1.7 µg/mL. In addition, in data set [2] (setting [12]), the IC50 is 72.7 µM. In [3] (setting [13]), the IC50 is 75.7 µM. Besides, the “Inhibitory activity toward both CS1 and CS3 (in words)” value in [4] is given as “mild inhibition”.
Take `C/C=C(\C(=O)O)N1C(=O)C=C(C)C1=O` [Pencolide]: in data set [1], the “Selectivity Cys (+)/Cys (–) (cysteine dependence index)” value is 7.6. The IC50 in data set [1] (Cys (+) medium, read-out: Cytotoxicity IC50 Against Entamoeba histolytica in Cys (+)) is 2140 µM; in data set [1] (Cys (–) medium, read-out: Cytotoxicity IC50 Against Entamoeba histolytica in Cys (–)) it was 283 ± 44 µM; in [2] (setting [12]), 233 ± 19 µM; in data set [3] (setting [13]), 217 ± 25 µM. Besides, in data set [6], the IC50 at 2 days worked out at 1900 µM. In data set [7], the “Selectivity MRC-5/Cys (–) (selectivity index)” value was determined as 6.7. Moreover, in [5], the “Stability” value is reported as “most of pencolide was changed to the cysteine adducts”. In addition, the “Cell morphology under a light microscope” value in data set [8] was “apoptosis-like cell death”.
As to `CC1=CC(C)CC=CC2C3OC3(C)C(C)C3C(Cc4c[nH]c5ccccc45)NC(=O)C23C(=O)C=CC(=O)C1` (stereo not shown) [Prochaetoglobosin III], in [1], the “Anti-amebic activity Selectivity Cys(+)/Cys(–)” value is listed as 17, the “Anti-amebic activity ED50 Cys (+)” value came to 44 µg/mL and the “Anti-amebic activity ED50 Cys (–)” value came out at 2.6 µg/mL. In addition, the IC50 in data set [2] was more than 195 µM. Further, in data set [3], the IC50 was more than 195 µM. In addition, in data set [5], the “Stability” value is on record as “totally lost”.
As to `CCCCCCCCCc1cc(OC(=O)c2c(CCCCCCCCC)cc(O)cc2OC2OC(CO)C(O)C(O)C2O)cc(O)c1C(=O)O` (stereo not shown) [exophillic acid], the “Antiamebic activity in vitro” value in [9] is “did not show the antiamebic activity”.
Take `CC(=O)c1c(C)c(/C(O)=C2\COc3cc(O)c(O)c(C(=O)O)c3C2=O)cc2c(=O)c3c(C(=O)O)c(O)c(O)cc3oc12` [xanthofulvin]: in data set [9], the “Antiamebic activity in vitro” value is on record as “did not show the antiamebic activity”.
Consider deacetylkinamycin C, for which the “ED50 value against amebic trophozoites” value in data set [9] (previous study) is given as “ca. 20 μM”. The “Cytotoxicity against MRC-5 cells relative to antiamebic/CS activity” value in data set [10] is on record as more than 10 times. Further, the IC50 in [11] was approximately 20 µM.
